Measurements from the supplement of paper PMC4121296.

Key:
Conditions in all cases: exposure: 5-72 hpf
[1] = test system: Danio rerio embryo (fli1:egfp); experiment: heart rate at 72 hpf (beats per minute); higher = faster heart rate
Procedure: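 fli1:egfp zebrafish embryos exposed 5-72 hpf to chemical (0.05-50 µM, 0.1% DMSO) in 384-well plates; heart rate at 72 hpf quantified from stream acquisitions by semi-automated MetaXpress journal (peak counting); only embryos in concentrations passing survival/body-length criteria analyzed.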

[2] = test system: Danio rerio embryo (fli1:egfp); experiment: arterial (dorsal aorta) circulation score at 72 hpf (normalized DA-Max (arbitrary units)); higher = more circulation
Procedure: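 fli1:egfp zebrafish embryos exposed 5-72 hpf to chemical (0.05-50 µM, 0.1% DMSO); arterial circulation at 72 hpf quantified from stream acquisitions of the dorsal aorta by FFT-based analysis (DA-Max, normalized dorsal aorta signal); only concentrations passing survival/body-length criteria analyzed.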

[3] = test system: Danio rerio embryo (fli1:egfp); experiment: intersegmental vessel area normalized to body length at 72 hpf (ISV area / body length (normalized units)); higher = more vessel area
Procedure: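 fli1:egfp zebrafish embryos exposed 5-72 hpf to chemical (0.05-50 µM, 0.1% DMSO); intersegmental vessel (ISV) eGFP area quantified by MetaXpress journal at 72 hpf and normalized to body length.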

[4] = test system: Danio rerio embryo (fli1:egfp); experiment: body length at 72 hpf (µm); higher = longer body (less growth inhibition)
Procedure: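 Transgenic fli1:egfp zebrafish embryos (one per well, 384-well plate) exposed statically from 5 to 72 hpf at 28 °C to chemical (0.05-50 µM, 0.1% DMSO); at 72 hpf anesthetized and imaged on ImageXpress; body length of live, hatched, correctly oriented embryos measured by automated MetaXpress journal. Dead/unhatched/misoriented embryos have no value.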

[5] = test system: Danio rerio embryo (fli1:egfp); experiment: pericardial area at 72 hpf (image area units (not stated)); higher = larger pericardial area (edema)
Procedure: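 fli1:egfp zebrafish embryos exposed 5-72 hpf to chemical (0.05-50 µM, 0.1% DMSO); pericardial area at 72 hpf measured by semi-automated MetaXpress journal (increase indicates edema).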

CCN(Cc1c(F)cccc1Cl)c1c([N+](=O)[O-])cc(C(F)(F)F)cc1[N+](=O)[O-] [Flumetralin]
Conditions	arterial, [2]	body length at 72 hpf, [4]	heart rate at 72 hpf, [1]	intersegmental vessel area normalized, [3]
0.05 µM	16.7	3020	183	67.3
0.098 µM	16.1	3080	174	74.9
0.195 µM	16.8	3050	177	79.1
0.39 µM	15	3010	176	72.5
0.78 µM	15.4	2980	181	76.2
1.56 µM	15.1	2850	182	84
3.125 µM	–	2770	–	–
6.25 µM	–	2670	–	–
12.5 µM	–	2670	–	–
25 µM	–	2670	–	–
50 µM	–	2620	–	–

CCCCCOC(=O)COc1cc(N2C(=O)C3=C(CCCC3)C2=O)c(F)cc1Cl [Flumiclorac-pentyl]
Conditions	arterial, [2]	body length at 72 hpf, [4]	heart rate at 72 hpf, [1]	intersegmental vessel area normalized, [3]	pericardial area at 72 hpf, [5]
0.05 µM	11.7	3040	166	55.7	14500
0.098 µM	10.9	2980	159	66.5	15200
0.195 µM	10.3	2960	166	62.8	16200
0.39 µM	10.7	2950	175	66.4	15300
0.78 µM	9.99	3000	170	60.7	15200
1.56 µM	11.6	3000	178	62.7	16100
3.125 µM	11	2990	182	61.8	17000
6.25 µM	8.2	2960	185	65.1	16400
12.5 µM	8.36	3000	182	69.4	17700

C#CCN1C(=O)COc2cc(F)c(N3C(=O)C4=C(CCCC4)C3=O)cc21 [Flumioxazin]
Conditions	arterial, [2]	body length at 72 hpf, [4]	heart rate at 72 hpf, [1]	intersegmental vessel area normalized, [3]	pericardial area at 72 hpf, [5]
0.05 µM	6.76	3020	175	73.7	17000
0.098 µM	5.49	2970	169	74.8	17800
0.195 µM	5.79	3020	160	82.8	18200
0.39 µM	4.85	2920	155	68.9	19000
0.78 µM	5.18	3030	156	68.8	23000
1.56 µM	4.72	2960	164	74.8	18100
3.125 µM	4.39	3000	182	74	18700
6.25 µM	4.22	3000	169	69.6	19200
12.5 µM	4.91	2990	182	75.9	19300
25 µM	4.04	2920	166	86.4	17700
50 µM	6.16	2920	166	79	21100
